Laboratory results as given in paper PMC9454393 (Scientific Reports, 2022).
Like-named read-outs stand apart in the source and are kept apart here.

Tests used:
AChE [1] = target: T1, AChE (Homo sapiens, UniProt P22303); assay: biochemical; conditions: mean ± SD
Protocol: (§1) A previously described modified protocol of Ellman's spectrophotometric assay in clear flat-bottomed, 96-well plates, was used. […] The absorbance of each well was measured at 415 nm using a microplate reader. […]

BChE = BChE (Homo sapiens, UniProt P06276); assay: BChE inhibition, modified Ellman's spectrophotometric assay; assay type: biochemical; conditions: mean ± SD
Sequence of BChE (P06276 29-602): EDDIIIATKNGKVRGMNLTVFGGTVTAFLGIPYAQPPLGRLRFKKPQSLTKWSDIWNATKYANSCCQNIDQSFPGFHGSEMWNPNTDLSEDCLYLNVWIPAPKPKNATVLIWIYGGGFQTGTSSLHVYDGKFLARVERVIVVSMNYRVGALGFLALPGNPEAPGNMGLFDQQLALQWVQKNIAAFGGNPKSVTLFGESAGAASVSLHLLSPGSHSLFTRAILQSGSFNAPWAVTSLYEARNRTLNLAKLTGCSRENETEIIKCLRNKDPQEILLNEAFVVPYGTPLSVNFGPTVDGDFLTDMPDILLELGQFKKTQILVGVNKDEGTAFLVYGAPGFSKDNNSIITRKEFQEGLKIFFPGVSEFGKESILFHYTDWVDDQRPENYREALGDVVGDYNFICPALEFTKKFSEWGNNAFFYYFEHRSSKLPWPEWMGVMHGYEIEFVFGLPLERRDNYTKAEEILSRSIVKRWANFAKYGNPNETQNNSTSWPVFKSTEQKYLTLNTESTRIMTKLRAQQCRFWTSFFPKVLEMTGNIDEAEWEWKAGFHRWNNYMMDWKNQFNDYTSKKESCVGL
Protocol: as §1

AChE [2] = target: T1, AChE; conditions: cited from earlier work
[3] = 50 µM compound, NA = not active

T1 sequence (P22303 32-614): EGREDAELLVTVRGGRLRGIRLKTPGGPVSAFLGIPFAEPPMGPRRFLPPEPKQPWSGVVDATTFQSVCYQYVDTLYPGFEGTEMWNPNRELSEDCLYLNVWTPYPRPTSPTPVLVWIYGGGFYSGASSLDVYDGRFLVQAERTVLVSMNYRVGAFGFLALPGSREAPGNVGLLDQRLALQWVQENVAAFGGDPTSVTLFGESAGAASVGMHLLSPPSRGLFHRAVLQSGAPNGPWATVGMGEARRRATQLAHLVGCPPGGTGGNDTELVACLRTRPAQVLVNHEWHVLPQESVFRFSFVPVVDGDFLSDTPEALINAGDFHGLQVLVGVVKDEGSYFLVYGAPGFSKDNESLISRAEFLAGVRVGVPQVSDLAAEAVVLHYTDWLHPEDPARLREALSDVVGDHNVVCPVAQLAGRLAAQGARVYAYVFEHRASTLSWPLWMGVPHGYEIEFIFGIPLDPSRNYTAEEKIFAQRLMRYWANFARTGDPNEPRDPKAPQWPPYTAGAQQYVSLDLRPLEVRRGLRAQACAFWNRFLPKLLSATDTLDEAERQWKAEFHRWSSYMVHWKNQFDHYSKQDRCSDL

Molecule: Cc1ccc(-c2c(C(C#N)C(N)=O)c([N+](=O)[O-])c3n2CCCN3)cc1 (stereo not shown) [Compound 4a, 2-cyano-2-(8-nitro-6-(p-tolyl)-1,2,3,4-tetrahydropyrrolo[1,2-a]pyrimidin-7-yl)acetamide]
- inhibition at 50 µM (AChE [1]; [3]): 14.7 ± 2.26%
- inhibition at 50 µM (BChE; [3]): 26.1 ± 4.09%

Molecule: COc1ccc(-n2c(SC)c([N+](=O)[O-])c(C(C#N)C(N)=O)c2-c2ccc(Cl)cc2)cc1 (stereo not shown) [Compound 4aa, 2-(2-(4-chlorophenyl)-1-(4-methoxyphenyl)-5-(methylthio)-4-nitro-1H-pyrrol-3-yl)-2-cyanoacetamide]
- inhibition at 50 µM (AChE [1]; [3]): 48.6 ± 2.77%
- IC50 (AChE [1]): 54.6 ± 5.71 µM
- inhibition at 50 µM (BChE; [3]): 22.3 ± 3.91%

Molecule: CCOC(=O)C(C(N)=O)c1c([N+](=O)[O-])c(SC)n(-c2ccc(OC)cc2)c1-c1ccc(Cl)cc1 (stereo not shown) [Compound 4ac, Ethyl 3-amino-2-(2-(4-chlorophenyl)-1-(4-methoxyphenyl)-5-(methylthio)-4-nitro-1H-pyrrol-3-yl)-3-oxopropanoate]
- inhibition at 50 µM (AChE [1]; [3]): 11.8 ± 3.92%
- inhibition at 50 µM (BChE; [3]): 33.8 ± 4.84%

Molecule: CSc1c([N+](=O)[O-])c(C(C#N)C(N)=O)c(-c2ccc(C)cc2)n1-c1ccc(O)cc1 (stereo not shown) [Compound 4ae, 2-cyano-2-(1-(4-hydroxyphenyl)-5-(methylthio)-4-nitro-2-(p-tolyl)-1H-pyrrol-3-yl)acetamide]
- inhibition at 50 µM (AChE [1]; [3]): 52.4 ± 5.07%
- IC50 (AChE [1]): 33.1 ± 3.11 µM
- inhibition at 50 µM (BChE; [3]): 17.1 ± 3.49%

Molecule: COC(=O)C(C(N)=O)c1c([N+](=O)[O-])c(SC)n(-c2ccc(C)cc2)c1-c1ccccc1 (stereo not shown) [Compound 4af, Methyl 3-amino-2-(5-(methylthio)-4-nitro-2-phenyl-1-(p-tolyl)-1H-pyrrol-3-yl)-3-oxopropanoate]
- inhibition at 50 µM (AChE [1]; [3]): 24 ± 4.6%

Molecule: CSc1c([N+](=O)[O-])c(C(C#N)C(N)=O)c(-c2ccc(C)cc2)n1-c1ccc(C)cc1 (stereo not shown) [Compound 4ag, 2-cyano-2-(5-(methylthio)-4-nitro-1,2-di-p-tolyl-1H-pyrrol-3-yl)acetamide]
- inhibition at 50 µM (AChE [1]; [3]): 33.3 ± 2.31%

Molecule: CSc1c([N+](=O)[O-])c(C(C#N)C(N)=O)c(-c2ccc(Cl)cc2)n1-c1ccc(C)cc1 (stereo not shown) [Compound 4ah, 2-(2-(4-chlorophenyl)-5-(methylthio)-4-nitro-1-(p-tolyl)-1H-pyrrol-3-yl)-2-cyanoacetamide]
- inhibition at 50 µM (AChE [1]; [3]): 72.5 ± 3.05%
- IC50 (AChE [1]): 4.78 ± 1.63 µM

Molecule: CCOC(=O)C(C(N)=O)c1c([N+](=O)[O-])c(SC)n(-c2ccc(C)cc2)c1-c1ccccc1 (stereo not shown) [Compound 4ai, Ethyl3-amino-2-(5-(methylthio)-4-nitro-2-phenyl-1-(p-tolyl)-1H-pyrrol-3-yl)-3-oxopropanoate]
- inhibition at 50 µM (AChE [1]; [3]): 24.2 ± 2.23%

Molecule: COC(=O)C(C(N)=O)c1c([N+](=O)[O-])c(SC)n(-c2ccc(C)c(C)c2)c1-c1ccccc1 (stereo not shown) [Compound 4aj, Methyl3-amino-2-(1-(3,4-dimethylphenyl)-5-(methylthio)-4-nitro-2-phenyl-1H-pyrrol-3-yl)-3-oxopropanoate]
- inhibition at 50 µM (AChE [1]; [3]): 38.9 ± 5.99%

Molecule: CC1(C)CNc2c([N+](=O)[O-])c(C(C#N)C(N)=O)c(-c3ccccc3)n2C1 (stereo not shown) [Compound 4b, 2-cyano-2-(3,3-dimethyl-8-nitro-6-phenyl-1,2,3,4-tetrahydropyrrolo[1,2-a]pyrimidin-7-yl)acetamide]
- inhibition at 50 µM (AChE [1]; [3]): 52 ± 4.43%
- IC50 (AChE [1]): 37.1 ± 3.52 µM

Molecule: N#CC(C(N)=O)c1c([N+](=O)[O-])c2n(c1-c1ccccc1)CCCN2 (stereo not shown) [Compound 4c, 2-cyano-2-(8-nitro-6-phenyl-1,2,3,4-tetrahydropyrrolo[1,2-a]pyrimidin-7-yl)acetamide]
- inhibition at 50 µM (AChE [1]; [3]): 39.8 ± 3.69%

Molecule: CCOC(=O)C(C(N)=O)c1c([N+](=O)[O-])c2n(c1-c1ccccc1)CC(C)(C)CN2 (stereo not shown) [Compound 4d, Ethyl3-amino-2-(3,3-dimethyl-8-nitro-6-phenyl-1,2,3,4-tetrahydropyrrolo[1,2-a]pyrimidin-7-yl)-3-oxopropanoate]
- inhibition at 50 µM (AChE [1]; [3]): 13.5 ± 1.58%
- inhibition at 50 µM (BChE; [3]): 13.5 ± 2.96%

Molecule: CC1(C)CNc2c([N+](=O)[O-])c(C(C#N)C(N)=O)c(-c3ccc(Cl)cc3)n2C1 (stereo not shown) [Compound 4e, 2-(6-(4-chlorophenyl)-3,3-dimethyl-8-nitro-1,2,3,4-tetrahydropyrrolo[1,2-a]pyrimidin-7-yl)-2-cyanoacetamide]
- inhibition at 50 µM (AChE [1]; [3]): 57 ± 5.46%
- IC50 (AChE [1]): 36.3 ± 4.85 µM
- inhibition at 50 µM (BChE; [3]): 18.1 ± 2.89%

Molecule: COc1cccc(-c2c(C(C#N)C(N)=O)c([N+](=O)[O-])c3n2CCCN3)c1 (stereo not shown) [Compound 4f, 2-cyano-2-(6-(3-methoxyphenyl)-8-nitro-1,2,3,4-tetrahydropyrrolo[1,2-a]pyrimidin-7-yl)acetamide]
- inhibition at 50 µM (AChE [1]; [3]): 33.5 ± 5.19%
- inhibition at 50 µM (BChE; [3]): 17.8 ± 2.79%

Molecule: CCOC(=O)C(C(N)=O)c1c([N+](=O)[O-])c2n(c1-c1ccccc1)CCCN2 (stereo not shown) [Compound 4g, Ethyl 3-amino-2-(8-nitro-6-phenyl-1,2,3,4-tetrahydropyrrolo[1,2-a]pyrimidin-7-yl)-3-oxopropanoate]
- inhibition at 50 µM (AChE [1]; [3]): 30.8 ± 5.17%

Molecule: Cc1ccc(-c2c(C(C#N)C(N)=O)c([N+](=O)[O-])c3n2CC(C)(C)CN3)cc1 (stereo not shown) [Compound 4h, 2-cyano-2-(3,3-dimethyl-8-nitro-6-(p-tolyl)-1,2,3,4-tetrahydropyrrolo[1,2-a]pyrimidin-7-yl)acetamide]
- inhibition at 50 µM (AChE [1]; [3]): 45.8 ± 2.81%
- IC50 (AChE [1]): 67.6 ± 7.54 µM

Molecule: N#CC(C(N)=O)c1c([N+](=O)[O-])c2n(c1-c1ccc(Cl)cc1)CCCN2 (stereo not shown) [Compound 4i, 2-(6-(4-chlorophenyl)-8-nitro-1,2,3,4-tetrahydropyrrolo[1,2-a]pyrimidin-7-yl)-2-cyanoacetamide]
- inhibition at 50 µM (AChE [1]; [3]): 33.9 ± 6.87%

Molecule: COC(=O)C(C(N)=O)c1c([N+](=O)[O-])c2n(c1-c1ccc(C)cc1)CC(C)(C)CN2 (stereo not shown) [Compound 4j, Methyl3-amino-2-(3,3-dimethyl-8-nitro-6-(p-tolyl)-1,2,3,4-tetrahydropyrrolo[1,2-a]pyrimidin-7-yl)-3-oxopropanoate]
- inhibition at 50 µM (AChE [1]; [3]): 14.9 ± 2.45%
- inhibition at 50 µM (BChE; [3]): 28.2 ± 3.83%

Molecule: COC(=O)C(C(N)=O)c1c([N+](=O)[O-])c2n(c1-c1ccc(Cl)cc1)CC(C)(C)CN2 (stereo not shown) [Compound 4k, Methyl3-amino-2-(6-(4-chlorophenyl)-3,3-dimethyl-8-nitro-1,2,3,4-tetrahydropyrrolo[1,2-a]pyrimidin-7-yl)-3-oxopropanoate]
- inhibition at 50 µM (AChE [1]; [3]): 13.3 ± 4.88%
- inhibition at 50 µM (BChE; [3]): 13.7 ± 2.13%

Molecule: CCOC(=O)C(C(N)=O)c1c([N+](=O)[O-])c2n(c1-c1ccc(C)cc1)CC(C)(C)CN2 (stereo not shown) [Compound 4l, Ethyl3-amino-2-(3,3-dimethyl-8-nitro-6-(p-tolyl)-1,2,3,4-tetrahydropyrrolo[1,2-a]pyrimidin-7-yl)-3-oxopropanoate]
- inhibition at 50 µM (AChE [1]; [3]): 14.2 ± 2.12%

Molecule: CCOC(=O)C(C(N)=O)c1c([N+](=O)[O-])c(NCc2ccco2)n(Cc2ccco2)c1-c1ccc(Cl)cc1 (stereo not shown) [Compound 4n, Ethyl3-amino-2-(2-(4-chlorophenyl)-1-(furan-2-ylmethyl)-5-((furan-2-ylmethyl)amino)-4-nitro-1H-pyrrol-3-yl)-3-oxopropanoate]
- inhibition at 50 µM (BChE; [3]): 21.9 ± 1.18%

Molecule: Cc1ccc(-c2c(C(C#N)C(N)=O)c([N+](=O)[O-])c(NCc3ccco3)n2Cc2ccco2)cc1 (stereo not shown) [Compound 4o, 2-cyano-2-(1-(furan-2-ylmethyl)-5-((furan-2-ylmethyl)amino)-4-nitro-2-(p-tolyl)-1H-pyrrol-3-yl)acetamide]
- inhibition at 50 µM (AChE [1]; [3]): 19.8 ± 4.18%
- inhibition at 50 µM (BChE; [3]): 46.1 ± 6.43%
- IC50 (BChE): 69.2 ± 5.09 µM

Molecule: N#CC(C(N)=O)c1c([N+](=O)[O-])c(NCc2ccccc2)n(Cc2ccccc2)c1-c1ccc(Cl)cc1 (stereo not shown) [Compound 4p, 2-(1-benzyl-5-(benzylamino)-2-(4-chlorophenyl)-4-nitro-1H-pyrrol-3-yl)-2-cyanoacetamide]
- inhibition at 50 µM (AChE [1]; [3]): 18.7 ± 3.52%

Molecule: CCOC(=O)C(C(N)=O)c1c([N+](=O)[O-])c(NCc2ccco2)n(Cc2ccco2)c1-c1ccc(C)cc1 (stereo not shown) [Compound 4q, Ethyl3-amino-2-(1-(furan-2-ylmethyl)-5-((furan-2-ylmethyl)amino)-4-nitro-2-(p-tolyl)-1H-pyrrol-3-yl)-3-oxopropanoate]
- inhibition at 50 µM (AChE [1]; [3]): 17.8 ± 2.44%
- inhibition at 50 µM (BChE; [3]): 68.4 ± 6.35%
- IC50 (BChE): 18.6 ± 2.71 µM

Molecule: N#CC(C(N)=O)c1c([N+](=O)[O-])c(NCc2ccco2)n(Cc2ccco2)c1-c1ccc(Cl)cc1 (stereo not shown) [Compound 4s, 2-(2-(4-chlorophenyl)-1-(furan-2-ylmethyl)-5-((furan-2-ylmethyl)amino)-4-nitro-1H-pyrrol-3-yl)-2-cyanoacetamide]
- inhibition at 50 µM (BChE; [3]): 29.5 ± 3.87%

Molecule: CCOC(=O)C(C(N)=O)c1c([N+](=O)[O-])c(NCc2ccccc2)n(Cc2ccccc2)c1-c1ccc(C)cc1 (stereo not shown) [Compound 4t, Ethyl 3-amino-2-(1-benzyl-5-(benzylamino)-4-nitro-2-(p-tolyl)-1H-pyrrol-3-yl)-3-oxopropanoate]
- inhibition at 50 µM (BChE; [3]): 26.5 ± 5.12%

Molecule: N#CC(C(N)=O)c1c(-c2ccc(Cl)cc2)[nH]c(N)c1[N+](=O)[O-] (stereo not shown) [Compound 4w, 2-(5-amino-2-(4-chlorophenyl)-4-nitro-1H-pyrrol-3-yl)-2-cyanoacetamide]
- inhibition at 50 µM (AChE [1]; [3]): 48.6 ± 4.53%
- inhibition at 50 µM (BChE; [3]): 33.5 ± 3.4%

Molecule: COc1ccc(-c2[nH]c(N)c([N+](=O)[O-])c2C(C#N)C(N)=O)cc1 (stereo not shown) [Compound 4x, 2-(5-amino-2-(4-methoxyphenyl)-4-nitro-1H-pyrrol-3-yl)-2-cyanoacetamide]
- inhibition at 50 µM (AChE [1]; [3]): 47.7 ± 3.91%
- inhibition at 50 µM (BChE; [3]): 19.4 ± 3.91%

Molecule: N#CC(C(N)=O)c1c(-c2ccc3ccccc3c2)[nH]c(N)c1[N+](=O)[O-] (stereo not shown) [Compound 4y, 2-(5-amino-2-(naphthalen-2-yl)-4-nitro-1H-pyrrol-3-yl)-2-cyanoacetamide]
- inhibition at 50 µM (BChE; [3]): 19.1 ± 4.3%

Molecule: CSc1c([N+](=O)[O-])c(C(C#N)C(N)=O)c(-c2ccc(C)cc2)n1-c1ccc(C)c(C)c1 (stereo not shown) [Compound 4z, 2-cyano-2-(1-(3,4-dimethylphenyl)-5-(methylthio)-4-nitro-2-(p-tolyl)-1H-pyrrol-3-yl)acetamide]
- inhibition at 50 µM (AChE [1]; [3]): 26.7 ± 5.14%

Molecule: COc1cccc2cc(C(=O)/C=C/c3ccc[n+](Cc4ccccc4Br)c3)oc12 [D]
- IC50 (AChE [2]; Fig. 2 traditional AChE inhibitors, read-out: IC50 against AChE): 0.027 µM

Molecule: Cc1nc2ccccc2c2cc[nH]c12 [G]
- IC50 (AChE [2]; Fig. 3, target per b17 AChE, read-out: IC50): 4.9 ± 0.9 µM

Molecule: Ethyl3-amino-2-(5-(methylthio)-4-nitro-1-phenyl-2-(p-tolyl)-1H-pyrrol-3-yl)-3-oxopropanoate [Compound 4ak]
- AChE % inhibition at 50 µM (AChE [1]; [3]): 20.79 ± 2.62%
- BChE % inhibition at 50 µM (BChE; [3]): 25.56 ± 6.89%
